Test results taken from PubChem BioAssay (NCI).
Several values for one entry are separate records, joined by “and”; a condition that tells them apart may be missing. Equal entries are not always repeated.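 Test compounds were applied to cells in 96-well plates for 48 hours at 5 doses. The concentration for 50% growth inhibition is given as GI50. TGI: concentration producing complete growth inhibition.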

Tests used:
Test in all cases: NCI tumour cell line growth inhibition, 48 h
OVCAR-8 ovarian = test system: OVCAR-8 ovarian
HT29 colon = test system: HT29 colon
SR leukemia = test system: SR leukemia
MCF7 breast = test system: MCF7 breast
A498 renal = test system: A498 renal
MDA-MB-435 = test system: MDA-MB-435
DU-145 prostate = test system: DU-145 prostate
TK-10 renal = test system: TK-10 renal
RXF 393 renal = test system: RXF 393 renal
K-562 leukemia = test system: K-562 leukemia

SMILES	GI50 (OVCAR-8 ovarian)	TGI (OVCAR-8 ovarian) [µM]	GI50 (HT29 colon)	TGI (HT29 colon) [µM]	GI50 (SR leukemia) [µM]	TGI (SR leukemia)	GI50 (MCF7 breast) [µM]	TGI (MCF7 breast) [µM]	GI50 (A498 renal)	TGI (A498 renal) [µM]	GI50 (MDA-MB-435) [µM]	TGI (MDA-MB-435) [µM]	GI50 (DU-145 prostate)	TGI (DU-145 prostate) [µM]	GI50 (TK-10 renal)	TGI (TK-10 renal) [µM]	GI50 (RXF 393 renal)	TGI (RXF 393 renal) [µM]	GI50 (K-562 leukemia)	TGI (K-562 leukemia)
COCc1c(-c2cc3cc(C)cc(OC)c3s2)c2c(N)ncnn2c1CN1CCNC(=O)C1	4.85 µM	> 100	3.68 µM	19.9	3.81	40.5 µM	3.82	33.6	0.0102 µM	0.0803	4.29	24	4.99 µM	> 100	3.64 µM	30.6	–	–	–	–
O=C(Nc1cccc(O)c1)c1ccc(NC2=C(Cl)C(=O)N(Cc3ccc(Cl)cc3Cl)C2=O)cc1	1.95 µM	4.12	2.75 µM	> 22.1	0.168	0.411 µM	1.83	4.29	15 µM	29.3	1.89	3.63	6.15 µM	11.6	2.07 µM	4.82	2.31 µM	4.72	1.08 µM	3.96 µM
CC1=C2[C@@H](CC1)[C@]1(C)O[C@@](C(C)C)(C[C@H]1OC(=O)CO)[C@H]2OC(=O)C1CC1c1ccccc1 (stereo partly drawn)	12.9 µM	35.6	13.5 µM	28.3	10.9	34.9 µM	8.98	27.8	0.24 µM	0.943	14.1	27.3	14.6 µM	27.9	16.6 µM	31.6	0.405 µM	17.4	12.2 µM	36.5 µM
CCOC(=O)c1cc2c(cc1Cl)SC(=Nc1ccccc1)N(S(=O)(=O)c1ccc(Cl)cc1)S2(=O)=O	22.1 µM	59.6	19.4 µM	> 100	–	–	4.38	15.9	11.4 µM	24.6	12.9	28.4	17.3 µM	31	16.8 µM	32.3	11.3 µM	36.1	15 µM	38.7 µM
CCOCCCn1c2c(c3c(O)cccc31)C(=O)c1ccccc1-2	31.1 µM	> 100	30.2 µM	> 100	10.6	27.7 µM	32.6	> 100	21.7 µM	52.5	18.4	46.5	33.3 µM	> 100	23.4 µM	76.2	30.3 µM	82.1	18.6 µM	55.7 µM
CCN(Cc1ccccc1)C1CCN(Cc2cc(Br)ccc2O)CC1	76.6 µM	> 100	20.1 µM	> 100	27.8	> 100 µM	27.8	> 100	9.29 µM	> 100	30.2	> 100	> 100 µM	> 100	> 100 µM	> 100	17.5 µM	94.6	26.6 µM	> 100 µM
CC1CC[P+](c2ccccc2)(c2ccccc2)c2c1ccc1ccccc21 (stereo not drawn)	–	21.1	–	13.9	9.65	> 100 µM	–	> 100	35.1 µM	88.2	–	16.4	13.3 µM	> 100	11.4 µM	> 100	–	43.5	–	17.8 µM
COc1ccc(C/C(=C(\C)c2ccc(OCCN3CCCC3)cc2)c2ccc(OCCN3CCCC3)cc2)cc1	2.05 µM	4.38	1.58 µM	3.07	0.565	3.47 µM	1.6	3.1	2.5 µM	8.04	1.7	3.24	1.86 µM	3.75	1.55 µM	3.02	1.48 µM	2.88	1.53 µM	3.6 µM
O=C(/C=C\c1ccc([N+](=O)[O-])cc1)c1ccccc(=O)c1O	–	11.3	–	3.85	–	> 100 µM	–	2.64	–	9.59	–	7.55	–	9.44	–	8.91	–	–	–	> 30.9 µM
COc1cccc(CC(C)=C(c2ccc(OCCN3CCCCC3)cc2)c2ccc(OCCN3CCCCC3)cc2)c1	2.3 µM	4.81	0.82 µM	2.79	0.392	1.2 µM	0.728	2.81	1.75 µM	3.72	1.67	3.57	2.11 µM	4.26	2.36 µM	4.54	0.916 µM	2.88	0.315 µM	0.802 µM
CC(C)(C)C1CCC2c3c([nH]c4ccccc34)C3C(=O)N(c4ccc(Cl)cc4)C(=O)C3C2C1 (stereo not drawn)	> 100 µM	> 100	34.5 µM and > 10 µM	> 100	–	39.5 µM and > 10 µM	–	99.6	–	> 10	> 100	> 100	> 100 µM	> 100	> 100 µM	> 100	48.5 µM and > 10 µM	> 100	21.1 µM and > 10 µM	46.1 µM and > 10 µM
COc1ccc(/C(COc2ccc3oc(-c4ccccc4)cc(=O)c3c2)=N\O)cc1	0.209 µM	–	0.783 µM	> 50	–	> 50 µM	< 0.005	11.6	–	–	< 0.005	< 0.005	2.27 µM	13.4	0.149 µM	9.75	47.4 µM	> 50	–	> 33.3 µM
COc1ccc(Cc2coc3ccccc3c2=O)cc1OC	–	> 100	–	> 100	–	> 100 µM	–	> 100	–	–	–	> 100	–	> 100	–	> 100	–	> 100	–	> 100 µM
CC(C)(C)c1ccc(Oc2ccc(N)cn2)cc1	75.6 µM	> 100	47.2 µM	> 100	30	> 100 µM	46.5	> 100	11.7 µM	> 100	72.9	> 100	38.2 µM	> 100	> 100 µM	> 100	49.6 µM	> 100	30.1 µM	> 100 µM
CC1C(C)N(C(=O)CCl)c2ccccc2N1C(=O)CCl (stereo not drawn)	0.55 µM	12.5	0.225 µM	0.523	0.396	2.02 µM	0.318	1.6	1.59 µM	3.14	0.276	0.939	0.472 µM	1.8	0.78 µM	2.04	0.266 µM	0.961	0.282 µM	2.37 µM
C=C/C=C/[C@@H](O)CC(=C)C[C@H]1OC2[C@H](C)[C@@H](OC(=O)C[C@H]3C[C@H](OC(C)=O)C[C@@]4(C[C@@](C)(O)C[C@H](CC(=C)[C@@H](C)[C@H](OC(C)=O)[C@H](C)C(=O)C[C@@H]5C[C@H](OC)CC6(C[C@@H](O)C[C@H](/C=C\CCC[C@H]7O[C@](O)(C=C[C@H]7C)[C@H]2O)O6)O5)O4)O3)[C@@H]1O	0.00053 µM and 0.0025 µM	–	0.0025 µM	–	0.0025	> 25 µM	< 0.0025	< 0.0025	0.000388 µM and 0.0025 µM	0.00544	< 0.0025	< 0.0025	0.0012 µM and 0.0025 µM	–	0.00162 µM and 0.0025 µM	–	0.0025 µM	0.0542	–	> 25 µM
COC(=O)c1ccc(CN2C(=O)C(Cl)=C(Nc3cccc(Cl)c3C)C2=O)cc1	37.2 µM	> 100	4.85 µM	> 100	–	–	35.6	> 100	2.54 µM	15.2	7.89	37.9	29.1 µM	> 100	47.8 µM	> 100	33.7 µM	> 100	4.32 µM	21.1 µM
O=C1CC(c2cccc(F)c2)Nc2cc3c(cc21)OCO3 (stereo not drawn)	–	1.52	–	0.0667	–	–	< 0.01	> 100	–	> 100	< 0.01	< 0.01	< 0.01 µM	> 100	> 100 µM	> 100	–	0.0943	–	> 100 µM
CNC(=O)c1c(NC(=O)c2ccc(C(C)(C)C)cc2)sc2c(CN(C)C)c(O)ccc12	–	–	–	–	0.99	3.5 µM	1.41	2.95	–	–	1.8	3.34	–	–	1.94 µM	3.94	1.67 µM	3.33	0.317 µM	1.32 µM
NC(=O)c1cc([N+](=O)[O-])c(Cl)c([N+](=O)[O-])c1Cl	1.26 µM	2.56	0.308 µM	1.05	0.516	4.8 µM	0.893	2.64	1.9 µM	4.58	1.93	3.73	1.55 µM	2.88	1.61 µM	2.99	1.15 µM	2.39	–	–
CC1=C(c2ccccc2)C(O)(c2ccccc2)C(C)C1=O (stereo not drawn)	48 µM	> 100	10.5 µM	> 100	3.75	> 100 µM	13	> 100	–	–	2.13	5.47	27.2 µM	> 100	30.1 µM	> 100	17.4 µM	> 100	4.71 µM	> 100 µM
Cc1ccc(/C=N/Nc2nc(Nc3ccccc3)nc(-n3nc(C)cc3C)n2)cc1	3.33 µM	11.5	3.55 µM	> 100	3.31	> 100 µM	2.89	10.6	7.13 µM	92.4	4.84	37.6	5.45 µM	> 100	3.52 µM	22.9	–	–	3.71 µM	42.7 µM
COC(=O)C1=C(O)[C@H](C(=O)OC)C2(O)C(C(=O)OC)[C@H](c3ccc(OC(=O)C(C)c4ccc(CC(C)C)cc4)cc3)C[C@@H]1[C@@H]2C(=O)OC (stereo partly drawn)	13.1 µM	> 50	–	–	0.754	> 50 µM	8.18	> 50	–	–	12.8	28.2	0.804 µM	9.58	30.6 µM	> 50	–	–	0.695 µM	> 50 µM
Cc1cc2c(cc1Cl)S/C(=C/C(=O)O)C(Nc1ccc3ncsc3c1)=NS2(=O)=O	32.7 µM	> 100	19.4 µM	> 100	14.6	77.9 µM	8.75	> 92.5	–	–	> 33.5	> 53.4	21.2 µM	> 97.3	17.9 µM	51.1	19.8 µM	> 100	42.8 µM	> 100 µM
O=C(CCCN1CCC(O)(c2ccc(Cl)cc2)CC1)c1ccc(F)cc1	–	> 100	–	> 100	–	> 100 µM	–	> 100	–	–	–	33.7	–	> 100	–	> 100	–	–	–	> 100 µM
COc1ccc2c(c1)c(-c1nc(-c3c[nH]c4ccncc34)cs1)cn2C	1.99 µM	3.82	1.2 µM	2.62	–	–	1.47	3.09	1.65 µM	3.09	1.59	2.96	1.75 µM	3.25	1.88 µM	3.39	1.49 µM	2.88	0.716 µM	2.47 µM
Cc1ccc(S(=O)(=O)SC(C)(C)C)cc1	–	48.3	–	34.8	–	> 100 µM	–	42.1	–	> 100	–	77.6	–	> 100	–	> 100	–	–	–	54.4 µM
CC1=C(SCCC(=O)OC(C[Se]C2=C(C)C(=O)c3ccccc3C2=O)C(=O)NCCCCCC(=O)OCc2ccccc2)C(=O)c2ccccc2C1=O (stereo not drawn)	4.16 µM	15	3.56 µM	13.3	–	–	4.75	29.6	11.9 µM	> 100	2.13	13	–	–	13.8 µM	27.2	14.9 µM	28.3	3.04 µM	> 100 µM
